Target: Neuronal acetylcholine receptor subunit alpha-7 (Homo sapiens, UniProt P36544)
Test: Positive allosteric modulator activity at human alpha7 nAChR expressed in rat GH4C1 cells assessed as potentiation of acetylcholine-induced response by FDSS Ca2+ assay
Type: cell-based, GH4-C1

Sequence of Neuronal acetylcholine receptor subunit alpha-7 (P36544 whole entry): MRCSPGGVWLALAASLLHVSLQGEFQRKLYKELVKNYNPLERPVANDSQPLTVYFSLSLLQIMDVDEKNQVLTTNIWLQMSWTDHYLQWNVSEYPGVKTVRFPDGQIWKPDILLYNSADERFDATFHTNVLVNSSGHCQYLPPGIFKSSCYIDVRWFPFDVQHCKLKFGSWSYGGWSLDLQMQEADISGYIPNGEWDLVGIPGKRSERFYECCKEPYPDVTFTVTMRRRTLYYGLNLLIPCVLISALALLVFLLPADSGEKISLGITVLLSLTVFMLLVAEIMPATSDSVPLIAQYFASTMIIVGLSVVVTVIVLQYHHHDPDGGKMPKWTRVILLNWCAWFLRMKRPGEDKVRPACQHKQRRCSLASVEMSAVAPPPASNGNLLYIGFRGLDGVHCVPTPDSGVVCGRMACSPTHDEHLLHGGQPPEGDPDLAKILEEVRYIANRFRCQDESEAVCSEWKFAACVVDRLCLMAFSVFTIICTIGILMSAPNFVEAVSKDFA

EC50: 2000 nM
SMILES: C[C@H](NC(=O)[C@H]1C[C@@H]1c1ccccc1)c1ccc(S(C)(=O)=O)nc1

Reference: ChEMBL document CHEMBL2331348, “Positive allosteric modulators of nicotinic acetylcholine receptor” (ACS Med Chem Lett, 2013)
